Results as given in patent US20100233093A1, “Magnetic resonance imaging contrast agent with paramagnetic-inositol phosphates complexes” (GACHON UNIVERSITY OF MEDICINE & SCIENCE INDUSTRY-ACADEMIC …, priority 2009, published 2010).
“And” between values parts separate entries of the source, which are not always exact repeats. Equal values may be shown once.

How the values were obtained:
[1] = ITC analysis of Ca^2+ binding to phytate; conditions: Ca^2+ stronger than Mg^2+
[2] = ITC analysis of Gd^3+ binding to EDTA; conditions: higher affinity than EDTA
[3] = Stability constant (K) from thermodynamic parameters of ITC analysis; assay type: physicochemical; conditions: calculated from ΔG of ITC analysis
Source text: A stability constant (formation constant, binding constant) is an equilibrium constant for the formation of a complex in solution. It is a measure of the strength of the interaction between the reagents that come together to form the complex. The thermodynamics of metal ion complex formation provides much significant information. The chelate effect, below, is best explained in terms of thermodynamics. An equilibrium constant is related to the standard Gibbs free energy change for the reaction.

binding affinity for Ca^2+ relative to Mg^2+ [1] [fold]	affinity for Gd^3+ relative to EDTA [2]	Compound	Stability Constant (K) [3] [M⁻¹]
100	10 fold and 10- to 100 fold	O=P(O)(O)OC1C(OP(=O)(O)O)C(OP(=O)(O)O)C(OP(=O)(O)O)C(OP(=O)(O)O)C1OP(=O)(O)O (centres unmarked) [phytate]	–
–	–	O=C([O-])CN(CCN(CC(=O)[O-])CC(=O)O)CCN(CC(=O)[O-])CC(=O)O.[Gd+3] [Gd-DTPA]	1.2e+28
–	–	O=C([O-])CN1CCN(CC(=O)[O-])CCN(CC(=O)O)CCN(CC(=O)[O-])CC1.[Gd+3] [Gd-DOTA]	1.3e+29
–	–	O=C([O-])CN(CCN(CC(=O)[O-])CC(=O)[O-])CC(=O)[O-].[Gd+3] [Gd-EDTA]	4.4e+29
